Results from US12077503B2, “Substituted cyclic amides and their use as herbicides” (FMC CORPORATION, priority 2015, dated 2024).

Columns and labels:
Type in all cases: in vivo
[1] = test system: Kochia (Kochia scoparia); assay: Test A preemergence; conditions: Bassia scoparia, pre-emergence, 240 h, 0 to 100 scale where 0 is no effect and 100 is complete control, read-out: Kochia plant response rating
Procedure, shortened: (§1)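 Treatment is preemergence as a directed soil spray after planting, or postemergence at the one- to two-leaf stage, with test chemical in a non-phytotoxic solvent mixture plus surfactant. Plants stay in the greenhouse about 10 d before visual injury scoring on a 0 to 100 scale versus untreated controls.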

[2] = test system: barnyardgrass (Echinochloa crus-galli); assay: Test A preemergence; conditions: Echinochloa crus-galli, pre-emergence, 240 h, 0 to 100 scale where 0 is no effect and 100 is complete control, read-out: Barnyardgrass plant response rating
Procedure, shortened: as §1

[3] = test system: giant foxtail (Setaria faberii); assay: Test A preemergence; conditions: Setaria faberi, pre-emergence, 240 h, 0 to 100 scale where 0 is no effect and 100 is complete control, read-out: Foxtail, Giant plant response rating
Procedure, shortened: as §1

[4] = test system: pigweed (Amaranthus retroflexus); assay: Test A preemergence; conditions: Amaranthus retroflexus, pre-emergence, 240 h, 0 to 100 scale where 0 is no effect and 100 is complete control, read-out: Pigweed plant response rating
[5] = test system: ragweed (common ragweed, Ambrosia elatior); assay: Test A preemergence; conditions: Ambrosia artemisiifolia, pre-emergence, 240 h, 0 to 100 scale where 0 is no effect and 100 is complete control, read-out: Ragweed plant response rating
Procedure, shortened: as §1

[6] = test system: ryegrass, Italian (Italian ryegrass, Lolium multiflorum); assay: Test A preemergence; conditions: Lolium multiflorum, pre-emergence, 240 h, 0 to 100 scale where 0 is no effect and 100 is complete control, read-out: Ryegrass, Italian plant response rating
Procedure, shortened: as §1

[7] = test system: Galium (catchweed bedstraw, Galium aparine); assay: Test A postemergence; conditions: Galium, post-emergence, 240 h, Postemergence, read-out: Galium plant response rating (0 to 100 scale)
Procedure, shortened: as §1

[8] = test system: Kochia (Kochia scoparia); assay: Test A postemergence; conditions: Bassia scoparia, post-emergence, 240 h, Postemergence, read-out: Kochia plant response rating (0 to 100 scale)
Procedure, shortened: as §1

[9] = test system: barnyardgrass (Echinochloa crus-galli); assay: Test A postemergence; conditions: Echinochloa crus-galli, post-emergence, 240 h, Postemergence
Procedure, shortened: as §1

[10] = test system: blackgrass (Alopecurus myosuroides); assay: Test A postemergence; conditions: Alopecurus myosuroides, post-emergence, 240 h, Postemergence, read-out: Blackgrass plant response rating (0 to 100 scale)
Procedure, shortened: as §1

[11] = test system: corn (Zea mays); assay: Test A postemergence; conditions: Zea mays, post-emergence, 240 h, Postemergence, read-out: Corn plant response rating (0 to 100 scale)
Procedure, shortened: as §1

[12] = test system: giant foxtail (Setaria faberii); assay: Test A postemergence; conditions: Setaria faberi, post-emergence, 240 h, Postemergence, read-out: Foxtail, Giant plant response rating (0 to 100 scale)
Procedure, shortened: as §1

[13] = test system: pigweed (Amaranthus retroflexus); assay: Test A postemergence; conditions: Amaranthus retroflexus, post-emergence, 240 h, Postemergence, read-out: Pigweed plant response rating (0 to 100 scale)
Procedure, shortened: as §1

[14] = test system: ragweed (common ragweed, Ambrosia elatior); assay: Test A postemergence; conditions: Ambrosia artemisiifolia, post-emergence, 240 h, Postemergence, read-out: Ragweed plant response rating (0 to 100 scale)
Procedure, shortened: as §1

[15] = test system: ryegrass, Italian (Italian ryegrass, Lolium multiflorum); assay: Test A postemergence; conditions: Lolium multiflorum, post-emergence, 240 h, Postemergence, read-out: Ryegrass, Italian plant response rating (0 to 100 scale)
Procedure, shortened: as §1

[16] = test system: wheat (Triticum aestivum); assay: Test A postemergence; conditions: Triticum aestivum, post-emergence, 240 h, Postemergence, read-out: Wheat plant response rating (0 to 100 scale)
Procedure, shortened: as §1

[17] = test system: barnyardgrass (Echinochloa crus-galli); assay: Test B flooded paddy test; conditions: Echinochloa crus-galli, 250 g ai/ha, Flood; 0 to 100 scale where 0 is no effect and 100 is complete control; read-out: Barnyardgrass plant response rating
Procedure, shortened: (§2)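 Percent control, visually estimated after 13–15 d in the greenhouse on a 0–100 basis, compares treated pots with untreated ones; compound was put into paddy water 3 cm above the soil when plants had two leaves.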

[18] = test system: ducksalad (Heteranthera limosa); assay: Test B flooded paddy test; conditions: Heteranthera limosa, 250 g ai/ha, Flood; 0 to 100 scale where 0 is no effect and 100 is complete control; read-out: Ducksalad plant response rating
Procedure, shortened: as §2

[19] = test system: rice (Oryra sativa); assay: Test B flooded paddy test; conditions: Oryza sativa, 250 g ai/ha, Flood; 0 to 100 scale where 0 is no effect and 100 is complete control; read-out: Rice plant response rating
Procedure, shortened: as §2

[20] = test system: sedge, umbrella (small-flower umbrella sedge, Cyperus difformis); assay: Test B flooded paddy test; conditions: Cyperus difformis, 250 g ai/ha, Flood; 0 to 100 scale where 0 is no effect and 100 is complete control; read-out: Sedge, Umbrella plant response rating
Procedure, shortened: as §2

[21] = 125 g ai/ha, preemergence, visual injury rating, approximately 10 d
[22] = 125 g ai/ha, visual rating about 10 d after treatment
[23] = 31 g ai/ha, 0 is no effect, 100 is complete control

CN1C[C@H](c2csc3c2CCCC3)[C@@H](C(=O)Nc2cccc(F)c2F)C1=O [Compound 1276]
pest or weed control at 31 g/ha ([1]; 31 g ai/ha, Preemergence): 30% | pest or weed control at 125 g/ha [1, 21]: 60% | pest or weed control at 31 g/ha ([2]; 31 g ai/ha, Preemergence): 90% | pest or weed control at 125 g/ha [2, 21]: 100% | pest or weed control at 31 g/ha ([3]; 31 g ai/ha, Preemergence): 90% | pest or weed control at 125 g/ha [3, 21]: 100% | pest or weed control at 31 g/ha ([4]; 31 g ai/ha, Preemergence): 0% | pest or weed control at 125 g/ha [4, 21]: 30% | pest or weed control at 31 g/ha ([5]; 31 g ai/ha, Preemergence): 20% | pest or weed control at 125 g/ha [5, 21]: 80% | pest or weed control at 31 g/ha ([6]; 31 g ai/ha, Preemergence): 0% | pest or weed control at 125 g/ha [6, 21]: 30% | pest or weed control at 125 g/ha [7, 22]: 0% | pest or weed control at 31 g/ha [7, 23]: 0% | pest or weed control at 125 g/ha [8, 22]: 0% | pest or weed control at 31 g/ha [8, 23]: 0% | pest or weed control at 125 g/ha ([9]; 125 g ai/ha, visual rating about 10 d after treatment, read-out: Barnyardgrass plant response rating (0 to 100 scale, 0 no effect, 100 complete control)): 100% | pest or weed control at 31 g/ha ([9]; 31 g ai/ha, 0 is no effect, 100 is complete control, read-out: Barnyardgrass plant response rating (0 to 100 scale)): 70% | pest or weed control at 125 g/ha [10, 22]: 0% | pest or weed control at 31 g/ha [10, 23]: 0% | plant injury at 125 g/ha [11, 22]: 0% | plant injury at 31 g/ha [11, 23]: 0% | pest or weed control at 125 g/ha [12, 22]: 60% | pest or weed control at 31 g/ha [12, 23]: 30% | pest or weed control at 125 g/ha [13, 22]: 0% | pest or weed control at 31 g/ha [13, 23]: 0% | pest or weed control at 125 g/ha [14, 22]: 0% | pest or weed control at 31 g/ha [14, 23]: 0% | pest or weed control at 125 g/ha [15, 22]: 0% | pest or weed control at 31 g/ha [15, 23]: 0% | plant injury at 125 g/ha [16, 22]: 0% | plant injury at 31 g/ha [16, 23]: 0% | pest or weed control at 250 g/ha [17]: 65% | pest or weed control at 250 g/ha [18]: 90% | pest or weed control at 250 g/ha [19]: 25% | pest or weed control at 250 g/ha [20]: 0%
